Measurements: the kinase profiling compilation of Christmann-Franck et al. (2016)

What was measured:
Test in all cases: Caliper, Mobility shift assay off-chip
PRKCA (human) = PRKCA (human) (UniProt P17252)
MARK1 (human) = MARK1 (human) (UniProt Q9P0L2)
MAPK7 (human) = MAPK7 (human) (UniProt Q13164)
RPS6KA6 KD1 KD2 (human) = RPS6KA6 KD1 KD2 (human) (UniProt Q9UK32)
HCK (human) = HCK (human) (UniProt P08631)
MERTK (human) = MERTK (human) (UniProt Q12866)
PRKD1 (human) = PRKD1 (human) (UniProt Q15139)
STK3 (human) = STK3 (human) (UniProt Q13188)
STK3 (human), sequence (Q13188 whole entry, looked up): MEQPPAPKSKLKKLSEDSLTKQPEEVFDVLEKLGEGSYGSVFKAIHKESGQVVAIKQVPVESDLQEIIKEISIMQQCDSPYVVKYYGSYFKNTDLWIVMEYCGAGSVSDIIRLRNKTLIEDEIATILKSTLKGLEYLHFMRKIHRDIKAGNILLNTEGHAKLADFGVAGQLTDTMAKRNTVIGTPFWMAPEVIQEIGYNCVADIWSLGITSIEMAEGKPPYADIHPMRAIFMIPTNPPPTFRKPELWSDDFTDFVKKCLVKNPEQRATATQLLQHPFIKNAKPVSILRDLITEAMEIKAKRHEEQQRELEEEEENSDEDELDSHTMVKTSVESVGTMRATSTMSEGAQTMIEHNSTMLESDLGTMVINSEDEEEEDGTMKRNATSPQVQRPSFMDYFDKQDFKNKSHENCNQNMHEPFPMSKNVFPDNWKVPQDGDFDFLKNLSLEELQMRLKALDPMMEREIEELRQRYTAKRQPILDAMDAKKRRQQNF

IKBKE (human) = IKBKE (human) (UniProt Q14164)
EPHB1 (human) = EPHB1 (human) (UniProt P54762)
SGK3 (human) = SGK3 (human) (UniProt Q96BR1)
MST1R (human) = MST1R (human) (UniProt Q04912)
TAB1 (human) = TAB1 (human) (UniProt Q15750)
TAB1 (human), sequence (Q15750 whole entry, looked up): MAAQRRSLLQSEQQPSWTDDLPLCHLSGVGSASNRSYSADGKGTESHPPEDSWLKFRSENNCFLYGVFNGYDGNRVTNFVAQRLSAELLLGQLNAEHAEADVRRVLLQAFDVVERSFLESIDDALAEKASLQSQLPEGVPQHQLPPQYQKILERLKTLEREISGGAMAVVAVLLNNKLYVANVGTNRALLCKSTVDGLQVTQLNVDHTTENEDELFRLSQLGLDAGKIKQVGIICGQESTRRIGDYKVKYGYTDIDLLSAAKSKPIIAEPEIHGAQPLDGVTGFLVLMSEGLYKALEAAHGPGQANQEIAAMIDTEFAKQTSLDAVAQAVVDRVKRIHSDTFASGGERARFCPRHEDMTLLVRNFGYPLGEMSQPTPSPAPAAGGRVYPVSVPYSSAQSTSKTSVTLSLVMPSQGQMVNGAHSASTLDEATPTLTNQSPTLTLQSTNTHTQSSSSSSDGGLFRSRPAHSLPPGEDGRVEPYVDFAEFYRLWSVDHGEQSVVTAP

CHEK2 (human) = CHEK2 (human) (UniProt O96017)
GSK3A (human) = GSK3A (human) (UniProt P49840)
GSK3A (human), sequence (P49840 whole entry, looked up): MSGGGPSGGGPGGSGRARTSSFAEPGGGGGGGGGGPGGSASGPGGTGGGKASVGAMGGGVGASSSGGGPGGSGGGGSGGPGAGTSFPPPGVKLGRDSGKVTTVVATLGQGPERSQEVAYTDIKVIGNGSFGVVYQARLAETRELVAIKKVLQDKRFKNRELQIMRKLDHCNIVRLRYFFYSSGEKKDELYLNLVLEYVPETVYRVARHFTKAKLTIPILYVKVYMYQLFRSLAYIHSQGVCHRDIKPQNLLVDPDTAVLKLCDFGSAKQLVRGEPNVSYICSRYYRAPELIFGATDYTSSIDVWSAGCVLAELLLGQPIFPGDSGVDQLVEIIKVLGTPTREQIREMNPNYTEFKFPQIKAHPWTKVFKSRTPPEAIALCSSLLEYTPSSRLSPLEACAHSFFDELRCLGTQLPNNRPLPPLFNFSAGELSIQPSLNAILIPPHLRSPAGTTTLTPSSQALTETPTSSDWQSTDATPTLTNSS

PRKCE (human) = PRKCE (human) (UniProt Q02156)
SRMS (human) = SRMS (human) (UniProt Q9H3Y6)
PIM3 (human) = PIM3 (human) (UniProt Q86V86)
MAPK12 (human) = MAPK12 (human) (UniProt P53778)
PRKAA1 (human) = PRKAA1 (human) (UniProt Q13131)
CIT (human) = CIT (human) (UniProt O14578)
RET (human) = RET (human) (UniProt P07949)
RET (human), sequence (P07949 whole entry, looked up): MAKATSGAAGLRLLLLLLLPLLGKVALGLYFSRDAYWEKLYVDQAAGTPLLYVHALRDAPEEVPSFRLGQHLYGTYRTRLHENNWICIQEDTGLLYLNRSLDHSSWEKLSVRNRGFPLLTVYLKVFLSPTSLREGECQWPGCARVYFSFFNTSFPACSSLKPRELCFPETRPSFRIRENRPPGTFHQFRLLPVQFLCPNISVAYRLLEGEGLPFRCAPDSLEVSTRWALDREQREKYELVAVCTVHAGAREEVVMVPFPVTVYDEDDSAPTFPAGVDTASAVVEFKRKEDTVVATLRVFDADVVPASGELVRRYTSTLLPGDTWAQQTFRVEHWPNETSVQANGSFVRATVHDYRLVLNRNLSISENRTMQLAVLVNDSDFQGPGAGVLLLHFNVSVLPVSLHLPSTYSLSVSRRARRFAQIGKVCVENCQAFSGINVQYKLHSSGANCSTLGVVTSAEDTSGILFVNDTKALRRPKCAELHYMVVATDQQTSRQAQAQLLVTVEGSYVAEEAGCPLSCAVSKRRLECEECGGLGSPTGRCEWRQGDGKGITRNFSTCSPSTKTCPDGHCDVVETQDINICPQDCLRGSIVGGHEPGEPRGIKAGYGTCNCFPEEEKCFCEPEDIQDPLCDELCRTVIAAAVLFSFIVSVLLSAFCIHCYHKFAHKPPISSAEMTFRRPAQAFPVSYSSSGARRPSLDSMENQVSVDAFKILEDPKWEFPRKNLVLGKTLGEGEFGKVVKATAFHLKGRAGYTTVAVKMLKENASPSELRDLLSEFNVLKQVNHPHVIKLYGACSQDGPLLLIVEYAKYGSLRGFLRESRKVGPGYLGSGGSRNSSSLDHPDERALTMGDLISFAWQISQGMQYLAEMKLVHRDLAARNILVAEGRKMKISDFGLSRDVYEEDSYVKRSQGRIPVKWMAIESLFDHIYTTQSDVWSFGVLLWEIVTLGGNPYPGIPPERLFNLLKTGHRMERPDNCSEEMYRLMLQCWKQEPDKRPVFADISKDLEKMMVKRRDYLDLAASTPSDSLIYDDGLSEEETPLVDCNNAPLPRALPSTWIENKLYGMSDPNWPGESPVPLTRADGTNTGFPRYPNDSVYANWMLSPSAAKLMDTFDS

PAK7 (human) = PAK7 (human) (UniProt Q9P286)
PRKACG (human) = PRKACG (human) (UniProt P22612)
AKT3 (human) = AKT3 (human) (UniProt Q9Y243)
PAK1 (human) = PAK1 (human) (UniProt Q13153)
PAK1 (human), sequence (Q13153 whole entry, looked up): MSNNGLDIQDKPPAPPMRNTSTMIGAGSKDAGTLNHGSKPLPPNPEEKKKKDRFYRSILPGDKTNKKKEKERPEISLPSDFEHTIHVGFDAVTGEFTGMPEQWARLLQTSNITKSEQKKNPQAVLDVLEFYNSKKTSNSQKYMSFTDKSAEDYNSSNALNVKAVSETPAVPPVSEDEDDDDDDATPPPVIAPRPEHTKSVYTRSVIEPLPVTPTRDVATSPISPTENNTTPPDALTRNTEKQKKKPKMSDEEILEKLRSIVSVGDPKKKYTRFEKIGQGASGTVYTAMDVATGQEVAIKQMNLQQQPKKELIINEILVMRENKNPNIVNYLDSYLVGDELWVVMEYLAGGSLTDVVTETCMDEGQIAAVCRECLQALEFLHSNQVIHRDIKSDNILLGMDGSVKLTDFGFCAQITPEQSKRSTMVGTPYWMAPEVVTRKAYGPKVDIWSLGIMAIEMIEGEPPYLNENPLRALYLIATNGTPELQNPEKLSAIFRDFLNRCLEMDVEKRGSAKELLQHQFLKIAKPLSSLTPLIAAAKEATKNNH

AKT1 (human) = AKT1 (human) (UniProt P31749)
MAPKAPK2 (human) = MAPKAPK2 (human) (UniProt P49137)
PTK2 (human) = PTK2 (human) (UniProt Q05397)
ALK (human) = ALK (human) (UniProt Q9UM73)
MAPKAPK5 (human) = MAPKAPK5 (human) (UniProt Q8IW41)
MAPKAPK5 (human), sequence (Q8IW41 whole entry, looked up): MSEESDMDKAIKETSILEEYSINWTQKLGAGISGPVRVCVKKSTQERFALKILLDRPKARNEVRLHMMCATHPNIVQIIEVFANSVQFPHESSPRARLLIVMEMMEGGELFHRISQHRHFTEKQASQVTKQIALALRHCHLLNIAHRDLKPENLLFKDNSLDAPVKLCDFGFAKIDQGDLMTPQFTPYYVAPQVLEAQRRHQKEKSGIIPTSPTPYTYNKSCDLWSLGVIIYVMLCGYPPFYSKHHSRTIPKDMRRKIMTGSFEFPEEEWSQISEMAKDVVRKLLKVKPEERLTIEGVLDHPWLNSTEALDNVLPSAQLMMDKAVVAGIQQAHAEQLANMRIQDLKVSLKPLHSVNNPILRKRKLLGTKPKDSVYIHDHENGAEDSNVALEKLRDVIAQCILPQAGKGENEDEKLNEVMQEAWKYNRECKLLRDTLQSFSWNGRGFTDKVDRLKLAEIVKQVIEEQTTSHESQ

PTK6 (human) = PTK6 (human) (UniProt Q13882)
PTK6 (human), sequence (Q13882 whole entry, looked up): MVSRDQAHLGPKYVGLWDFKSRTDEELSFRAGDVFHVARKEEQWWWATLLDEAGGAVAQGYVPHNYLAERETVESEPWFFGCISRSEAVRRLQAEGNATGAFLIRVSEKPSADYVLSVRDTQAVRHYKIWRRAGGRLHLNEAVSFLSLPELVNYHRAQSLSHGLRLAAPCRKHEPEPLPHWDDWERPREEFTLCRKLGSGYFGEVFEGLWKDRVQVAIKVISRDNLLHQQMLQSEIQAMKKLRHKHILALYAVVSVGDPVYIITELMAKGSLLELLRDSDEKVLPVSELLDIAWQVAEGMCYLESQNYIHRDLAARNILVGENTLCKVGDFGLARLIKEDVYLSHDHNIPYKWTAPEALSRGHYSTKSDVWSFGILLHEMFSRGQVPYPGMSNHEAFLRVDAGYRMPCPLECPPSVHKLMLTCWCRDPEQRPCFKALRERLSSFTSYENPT

EPHA8 (human) = EPHA8 (human) (UniProt P29322)

MAPK7 (human), sequence (Q13164 whole entry, looked up): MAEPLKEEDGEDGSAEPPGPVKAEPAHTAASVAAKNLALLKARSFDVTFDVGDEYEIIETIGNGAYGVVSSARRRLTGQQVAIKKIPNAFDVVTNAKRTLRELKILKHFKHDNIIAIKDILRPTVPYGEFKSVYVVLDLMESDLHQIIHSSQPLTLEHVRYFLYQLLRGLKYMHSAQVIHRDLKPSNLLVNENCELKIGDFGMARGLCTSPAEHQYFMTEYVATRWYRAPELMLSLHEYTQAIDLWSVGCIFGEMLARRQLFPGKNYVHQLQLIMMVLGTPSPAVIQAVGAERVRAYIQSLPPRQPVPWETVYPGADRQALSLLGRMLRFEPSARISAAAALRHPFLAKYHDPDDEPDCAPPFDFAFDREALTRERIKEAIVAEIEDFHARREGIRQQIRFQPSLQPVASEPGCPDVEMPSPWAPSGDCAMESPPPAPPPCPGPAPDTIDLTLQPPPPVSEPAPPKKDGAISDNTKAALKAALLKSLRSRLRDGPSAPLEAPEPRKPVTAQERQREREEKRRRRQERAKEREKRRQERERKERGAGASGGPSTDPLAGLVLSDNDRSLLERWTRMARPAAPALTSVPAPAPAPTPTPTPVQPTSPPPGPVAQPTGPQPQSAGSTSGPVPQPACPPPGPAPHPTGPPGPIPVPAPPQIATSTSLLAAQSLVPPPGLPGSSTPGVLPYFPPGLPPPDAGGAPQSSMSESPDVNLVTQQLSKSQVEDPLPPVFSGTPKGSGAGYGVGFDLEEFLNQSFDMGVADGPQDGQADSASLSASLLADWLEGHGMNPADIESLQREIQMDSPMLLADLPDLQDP

CNC(=O)c1cc(Oc2ccc(NC(=O)Nc3ccc(Cl)c(C(F)(F)F)c3)cc2)ccn1
inhibition (PRKCA (human); compound 0.02 µM): 1.2% | inhibition (PRKCA (human); compound 0.2 µM): 12.2% | inhibition (MARK1 (human); compound 0.02 µM): -0.8% | inhibition (MARK1 (human); compound 0.2 µM): 0.9% | inhibition (MAPK7 (human); compound 0.02 µM): -9.1% | inhibition (MAPK7 (human); compound 0.2 µM): -8.8% | inhibition (RPS6KA6 KD1 KD2 (human); compound 0.02 µM): -2% | inhibition (RPS6KA6 KD1 KD2 (human); compound 0.2 µM): -6.2% | inhibition (HCK (human); compound 0.02 µM): -11.6% | inhibition (HCK (human); compound 0.2 µM): 5.2% | inhibition (MERTK (human); compound 0.02 µM): -3.5% | inhibition (MERTK (human); compound 0.2 µM): 10.2% | inhibition (PRKD1 (human); compound 0.02 µM): -1.1% | inhibition (PRKD1 (human); compound 0.2 µM): 2.7% | inhibition (STK3 (human); compound 0.02 µM): -3.3% | inhibition (STK3 (human); compound 0.2 µM): -1.9% | inhibition (IKBKE (human); compound 0.02 µM): -4.5% | inhibition (IKBKE (human); compound 0.2 µM): -4.7% | inhibition (EPHB1 (human); compound 0.02 µM): -1.8% | inhibition (EPHB1 (human); compound 0.2 µM): 8.5% | inhibition (SGK3 (human); compound 0.02 µM): 0.8% | inhibition (SGK3 (human); compound 0.2 µM): 10.7% | inhibition (MST1R (human); compound 0.02 µM): -4.7% | inhibition (MST1R (human); compound 0.2 µM): 5.3% | inhibition (TAB1 (human); compound 0.02 µM): 4.8% | inhibition (TAB1 (human); compound 0.2 µM): 14.3% | inhibition (CHEK2 (human); compound 0.02 µM): -0.8% | inhibition (CHEK2 (human); compound 0.2 µM): 2.2% | inhibition (GSK3A (human); compound 0.02 µM): -3.9% | inhibition (GSK3A (human); compound 0.2 µM): 6.8% | inhibition (PRKCE (human); compound 0.02 µM): 0.4% | inhibition (PRKCE (human); compound 0.2 µM): 6% | inhibition (SRMS (human); compound 0.02 µM): -0.4% | inhibition (SRMS (human); compound 0.2 µM): 4.1% | inhibition (PIM3 (human); compound 0.02 µM): -1.8% | inhibition (PIM3 (human); compound 0.2 µM): -4.2% | inhibition (MAPK12 (human); compound 0.02 µM): -5.9% | inhibition (MAPK12 (human); compound 0.2 µM): -0.3% | inhibition (PRKAA1 (human); compound 0.02 µM): -5.7% | inhibition (PRKAA1 (human); compound 0.2 µM): 10.7% | inhibition (CIT (human); compound 0.02 µM): -4.9% | inhibition (CIT (human); compound 0.2 µM): -2.3% | inhibition (RET (human); compound 0.02 µM): 79.4% | inhibition (RET (human); compound 0.2 µM): 101% | inhibition (PAK7 (human); compound 0.02 µM): -2.5% | inhibition (PAK7 (human); compound 0.2 µM): -1.8% | inhibition (PRKACG (human); compound 0.02 µM): -6.6% | inhibition (PRKACG (human); compound 0.2 µM): -6% | inhibition (AKT3 (human); compound 0.02 µM): -2.6% | inhibition (AKT3 (human); compound 0.2 µM): -1.1% | inhibition (PAK1 (human); compound 0.02 µM): -0.9% | inhibition (PAK1 (human); compound 0.2 µM): 1.1% | inhibition (AKT1 (human); compound 0.02 µM): -2.8% | inhibition (AKT1 (human); compound 0.2 µM): -1.4% | inhibition (MAPKAPK2 (human); compound 0.02 µM): -7.2% | inhibition (MAPKAPK2 (human); compound 0.2 µM): -2% | inhibition (PTK2 (human); compound 0.02 µM): -4.6% | inhibition (PTK2 (human); compound 0.2 µM): -3.4% | inhibition (ALK (human); compound 0.02 µM): -3.3% | inhibition (ALK (human); compound 0.2 µM): 5.8% | inhibition (MAPKAPK5 (human); compound 0.02 µM): -7.4% | inhibition (MAPKAPK5 (human); compound 0.2 µM): 1.4% | inhibition (PTK6 (human); compound 0.02 µM): -0.9% | inhibition (PTK6 (human); compound 0.2 µM): -0.8% | inhibition (EPHA8 (human); compound 0.02 µM): 2.5% | inhibition (EPHA8 (human); compound 0.2 µM): 37.2%

Cc1ccc(Nc2nccc(N(C)c3ccc4c(C)n(C)nc4c3)n2)cc1S(N)(=O)=O
inhibition (PRKCA (human); compound 0.02 µM): -0.8% | inhibition (PRKCA (human); compound 0.2 µM): -1% | inhibition (MARK1 (human); compound 0.02 µM): 4.6% | inhibition (MARK1 (human); compound 0.2 µM): 3% | inhibition (MAPK7 (human); compound 0.02 µM): -7.8% | inhibition (MAPK7 (human); compound 0.2 µM): -7.6% | inhibition (RPS6KA6 KD1 KD2 (human); compound 0.02 µM): 1.2% | inhibition (RPS6KA6 KD1 KD2 (human); compound 0.2 µM): 1.7% | inhibition (HCK (human); compound 0.02 µM): 2.6% | inhibition (HCK (human); compound 0.2 µM): 25.1% | inhibition (MERTK (human); compound 0.02 µM): 3% | inhibition (MERTK (human); compound 0.2 µM): 15.6% | inhibition (PRKD1 (human); compound 0.02 µM): -1.1% | inhibition (PRKD1 (human); compound 0.2 µM): -0.8% | inhibition (STK3 (human); compound 0.02 µM): -1.9% | inhibition (STK3 (human); compound 0.2 µM): -4.2% | inhibition (IKBKE (human); compound 0.02 µM): -3.4% | inhibition (IKBKE (human); compound 0.2 µM): -7.1% | inhibition (EPHB1 (human); compound 0.02 µM): -1% | inhibition (EPHB1 (human); compound 0.2 µM): -1.6% | inhibition (SGK3 (human); compound 0.02 µM): -0.2% | inhibition (SGK3 (human); compound 0.2 µM): -2.7% | inhibition (MST1R (human); compound 0.02 µM): 2.1% | inhibition (MST1R (human); compound 0.2 µM): 4.9% | inhibition (TAB1 (human); compound 0.02 µM): 6.5% | inhibition (TAB1 (human); compound 0.2 µM): 6% | inhibition (CHEK2 (human); compound 0.02 µM): 4.1% | inhibition (CHEK2 (human); compound 0.2 µM): 4.1% | inhibition (GSK3A (human); compound 0.02 µM): 1.8% | inhibition (GSK3A (human); compound 0.2 µM): 5.1% | inhibition (PRKCE (human); compound 0.02 µM): 5.8% | inhibition (PRKCE (human); compound 0.2 µM): -8.2% | inhibition (SRMS (human); compound 0.02 µM): 1.1% | inhibition (SRMS (human); compound 0.2 µM): 25.2% | inhibition (PIM3 (human); compound 0.02 µM): -3.4% | inhibition (PIM3 (human); compound 0.2 µM): -4.2% | inhibition (MAPK12 (human); compound 0.02 µM): -6.3% | inhibition (MAPK12 (human); compound 0.2 µM): -2.7% | inhibition (PRKAA1 (human); compound 0.02 µM): 8% | inhibition (PRKAA1 (human); compound 0.2 µM): -10.1% | inhibition (CIT (human); compound 0.02 µM): -2.3% | inhibition (CIT (human); compound 0.2 µM): 0.3% | inhibition (RET (human); compound 0.02 µM): 32.3% | inhibition (RET (human); compound 0.2 µM): 82.1% | inhibition (PAK7 (human); compound 0.02 µM): 9% | inhibition (PAK7 (human); compound 0.2 µM): 1.3% | inhibition (PRKACG (human); compound 0.02 µM): -6.9% | inhibition (PRKACG (human); compound 0.2 µM): -6.6% | inhibition (AKT3 (human); compound 0.02 µM): -3.2% | inhibition (AKT3 (human); compound 0.2 µM): -2.6% | inhibition (PAK1 (human); compound 0.02 µM): -3.6% | inhibition (PAK1 (human); compound 0.2 µM): 1% | inhibition (AKT1 (human); compound 0.02 µM): -2.3% | inhibition (AKT1 (human); compound 0.2 µM): -2.2% | inhibition (MAPKAPK2 (human); compound 0.02 µM): 5.5% | inhibition (MAPKAPK2 (human); compound 0.2 µM): 1.5% | inhibition (PTK2 (human); compound 0.02 µM): -2% | inhibition (PTK2 (human); compound 0.2 µM): 8.3% | inhibition (ALK (human); compound 0.02 µM): 10.1% | inhibition (ALK (human); compound 0.2 µM): 7.9% | inhibition (MAPKAPK5 (human); compound 0.02 µM): 3.2% | inhibition (MAPKAPK5 (human); compound 0.2 µM): 4.8% | inhibition (PTK6 (human); compound 0.02 µM): 2.5% | inhibition (PTK6 (human); compound 0.2 µM): 26.2% | inhibition (EPHA8 (human); compound 0.02 µM): -1.1% | inhibition (EPHA8 (human); compound 0.2 µM): 10.8%
